Measurements: ChEMBL document CHEMBL3882729, “Receptor-type kinase modulators and methods of use” (2009)

Key:
Ephrin type-A receptor 2 = Ephrin type-A receptor 2 (Homo sapiens, UniProt P29317); assay: Inhibition of recombinant human N-terminal His6-tagged EphA2 (N598 to R890 residues) expressed in baculovirus using poly-EY as substrate after 180 mins by luciferase coupled chemiluminescence assay
Ephrin type-B receptor 4 = target: T1, Ephrin type-B receptor 4 (Homo sapiens, UniProt P54760); assay: Inhibition of recombinant human N-terminal His6-tagged EphB4 kinase domain (E605 to E890 residues) expressed in baculovirus using poly-AEKY as substrate after 150 mins in presence of gamma33P-ATP by liquid scintillation spectrometry
T1 sequence (P54760 whole entry): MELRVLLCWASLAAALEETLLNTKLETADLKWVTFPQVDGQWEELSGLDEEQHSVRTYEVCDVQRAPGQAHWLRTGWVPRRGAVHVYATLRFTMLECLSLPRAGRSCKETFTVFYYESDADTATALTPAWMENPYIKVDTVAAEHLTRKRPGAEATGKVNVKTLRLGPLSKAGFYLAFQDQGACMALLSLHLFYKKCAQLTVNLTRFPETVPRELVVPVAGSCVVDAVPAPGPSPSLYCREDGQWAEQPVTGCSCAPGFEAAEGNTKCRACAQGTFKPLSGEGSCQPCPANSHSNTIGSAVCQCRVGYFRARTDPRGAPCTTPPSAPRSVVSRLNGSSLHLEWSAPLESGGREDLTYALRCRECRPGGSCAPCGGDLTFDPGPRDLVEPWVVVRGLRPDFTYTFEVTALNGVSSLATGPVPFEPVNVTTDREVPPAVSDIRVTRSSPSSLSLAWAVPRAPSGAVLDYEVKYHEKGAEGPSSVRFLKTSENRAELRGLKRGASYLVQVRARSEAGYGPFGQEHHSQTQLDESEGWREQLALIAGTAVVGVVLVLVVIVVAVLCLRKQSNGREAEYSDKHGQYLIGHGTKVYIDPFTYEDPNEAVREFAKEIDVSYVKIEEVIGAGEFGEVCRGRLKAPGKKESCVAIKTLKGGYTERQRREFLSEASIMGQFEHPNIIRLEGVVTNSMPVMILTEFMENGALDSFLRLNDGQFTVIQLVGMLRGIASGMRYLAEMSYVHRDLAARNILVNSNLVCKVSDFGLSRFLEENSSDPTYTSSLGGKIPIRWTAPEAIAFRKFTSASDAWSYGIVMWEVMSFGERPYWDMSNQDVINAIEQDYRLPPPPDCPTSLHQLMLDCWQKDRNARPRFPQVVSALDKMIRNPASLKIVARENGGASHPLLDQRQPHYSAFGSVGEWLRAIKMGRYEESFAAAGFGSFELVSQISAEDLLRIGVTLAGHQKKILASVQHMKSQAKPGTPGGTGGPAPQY

[1] = target: Vascular endothelial growth factor receptor 2 (Homo sapiens, UniProt P35968); assay: Inhibition of recombinant human N-terminal GST-fused KDR (D807 to V1356 residues) expressed in baculovirus infected […] insect Sf9 cells using poly-EY as substrate after 240 mins by luciferase coupled chemiluminescence assay
Sequence of Vascular endothelial growth factor receptor 2 (P35968 whole entry, the tested form may be a part): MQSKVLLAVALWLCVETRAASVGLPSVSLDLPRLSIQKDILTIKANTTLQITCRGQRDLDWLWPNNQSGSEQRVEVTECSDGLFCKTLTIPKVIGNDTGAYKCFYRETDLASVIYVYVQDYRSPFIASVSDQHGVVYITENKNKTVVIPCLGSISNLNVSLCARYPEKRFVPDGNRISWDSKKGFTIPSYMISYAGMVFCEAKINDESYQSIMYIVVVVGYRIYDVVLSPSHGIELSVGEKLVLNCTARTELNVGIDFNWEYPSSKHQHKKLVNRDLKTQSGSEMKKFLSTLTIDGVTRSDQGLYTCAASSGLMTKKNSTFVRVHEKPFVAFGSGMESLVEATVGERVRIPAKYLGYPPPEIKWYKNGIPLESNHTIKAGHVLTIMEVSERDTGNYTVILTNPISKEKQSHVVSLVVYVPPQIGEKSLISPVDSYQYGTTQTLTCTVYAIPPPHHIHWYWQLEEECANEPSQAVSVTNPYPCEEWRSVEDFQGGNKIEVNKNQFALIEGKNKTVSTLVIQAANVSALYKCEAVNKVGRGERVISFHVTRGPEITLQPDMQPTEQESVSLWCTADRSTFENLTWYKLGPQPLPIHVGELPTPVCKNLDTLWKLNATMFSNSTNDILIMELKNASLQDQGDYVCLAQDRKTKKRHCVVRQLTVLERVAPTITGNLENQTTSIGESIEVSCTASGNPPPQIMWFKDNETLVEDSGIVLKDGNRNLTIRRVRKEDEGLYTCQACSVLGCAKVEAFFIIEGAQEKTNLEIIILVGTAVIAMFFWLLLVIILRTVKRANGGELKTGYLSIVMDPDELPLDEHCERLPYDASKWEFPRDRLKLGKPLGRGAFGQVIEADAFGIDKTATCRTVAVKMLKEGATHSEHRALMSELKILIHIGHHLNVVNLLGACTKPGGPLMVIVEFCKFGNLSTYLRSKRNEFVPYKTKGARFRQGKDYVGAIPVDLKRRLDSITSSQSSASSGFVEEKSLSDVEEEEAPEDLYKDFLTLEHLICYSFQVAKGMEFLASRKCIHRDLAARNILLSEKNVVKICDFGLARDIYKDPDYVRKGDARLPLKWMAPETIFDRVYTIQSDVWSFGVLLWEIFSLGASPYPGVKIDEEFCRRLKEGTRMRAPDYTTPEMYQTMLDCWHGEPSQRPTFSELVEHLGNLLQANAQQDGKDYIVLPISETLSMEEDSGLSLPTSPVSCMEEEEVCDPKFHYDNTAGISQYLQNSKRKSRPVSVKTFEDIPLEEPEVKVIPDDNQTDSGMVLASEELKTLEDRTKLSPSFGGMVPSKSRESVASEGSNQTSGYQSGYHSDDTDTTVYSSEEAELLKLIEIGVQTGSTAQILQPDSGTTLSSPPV

Sequence of Ephrin type-A receptor 2 (P29317 whole entry, the tested form may be a part): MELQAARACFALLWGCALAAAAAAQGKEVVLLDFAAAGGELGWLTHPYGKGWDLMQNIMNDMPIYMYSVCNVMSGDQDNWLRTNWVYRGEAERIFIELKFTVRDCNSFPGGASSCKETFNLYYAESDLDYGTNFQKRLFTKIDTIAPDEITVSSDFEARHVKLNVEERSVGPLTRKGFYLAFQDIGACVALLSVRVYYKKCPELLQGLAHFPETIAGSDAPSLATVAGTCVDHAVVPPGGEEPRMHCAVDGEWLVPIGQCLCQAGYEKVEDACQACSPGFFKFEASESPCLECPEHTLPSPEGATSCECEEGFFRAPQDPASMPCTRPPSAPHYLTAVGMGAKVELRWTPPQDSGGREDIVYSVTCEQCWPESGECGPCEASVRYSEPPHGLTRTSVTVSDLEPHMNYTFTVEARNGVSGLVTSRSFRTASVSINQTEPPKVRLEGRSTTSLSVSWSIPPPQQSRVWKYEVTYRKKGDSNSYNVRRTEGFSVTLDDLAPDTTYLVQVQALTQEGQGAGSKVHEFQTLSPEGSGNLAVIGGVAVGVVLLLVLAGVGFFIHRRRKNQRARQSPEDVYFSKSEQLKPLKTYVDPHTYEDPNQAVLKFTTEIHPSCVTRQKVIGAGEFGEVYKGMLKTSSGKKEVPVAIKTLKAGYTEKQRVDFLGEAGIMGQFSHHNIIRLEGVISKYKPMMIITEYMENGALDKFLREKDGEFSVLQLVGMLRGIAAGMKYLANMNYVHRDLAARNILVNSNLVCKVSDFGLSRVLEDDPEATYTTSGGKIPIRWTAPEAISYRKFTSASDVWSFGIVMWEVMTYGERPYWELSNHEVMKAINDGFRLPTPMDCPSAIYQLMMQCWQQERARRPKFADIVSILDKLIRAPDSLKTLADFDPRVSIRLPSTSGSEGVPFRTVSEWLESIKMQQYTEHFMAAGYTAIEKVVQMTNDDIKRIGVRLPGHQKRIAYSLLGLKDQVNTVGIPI

| IC50 (Ephrin type-A receptor 2) [nM] | IC50 (Ephrin type-B receptor 4) [nM] | IC50 [1] [nM] | SMILES |
| --- | --- | --- | --- |
| 50 to 1000 | < 50 | 1000 to 20000 | CCN1CCN(C(C)=O)CC1COc1cc2ncnc(Nc3ccc(Cl)c(Cl)c3)c2cc1OC (stereo unspecified) |
| – | 1000 to 20000 | 1000 to 20000 | COc1cc2c(Nc3ccc(N4CCN(C)CC4)c(F)c3)ncnc2cc1O[C@H]1CO[C@H]2[C@@H]1OC[C@@H]2F |
| 50 to 1000 | 50 to 1000 | 50 to 1000 | COc1cc2c(Nc3ccc(F)c(Cl)c3)ncnc2cc1OCC1CN(C)CCO1 (stereo unspecified) |
| 50 to 1000 | 50 to 1000 | 50 to 1000 | COc1cc2c(Nc3ccc(Cl)c(Cl)c3)ncnc2cc1OCC1CN(CCO)CCO1 (stereo unspecified) |
| 50 to 1000 | 50 to 1000 | 50 to 1000 | COc1cc2c(Nc3ccc(Cl)c(Cl)c3)ncnc2cc1OCC1CN(C(C)C(C)=O)CCO1 (stereo unspecified) |
| 50 to 1000 | 50 to 1000 | 50 to 1000 | COc1cc2c(Nc3ccc(Cl)c(Cl)c3)ncnc2cc1OCC1CN(CC2CCCCC2)CCO1 (stereo unspecified) |
| < 50 | < 50 | 50 to 1000 | COc1cc2c(Nc3cccc(Cl)c3C)ncnc2cc1OCC1CN(C)CCO1 (stereo unspecified) |
| < 50 | < 50 | < 50 | COc1cc2c(Nc3ccc(Cl)c(Cl)c3)ncnc2cc1OCC1CN(CC2CC2)CCO1 (stereo unspecified) |
| < 50 | < 50 | < 50 | COc1cc2c(Nc3ccc(Cl)c(Cl)c3)ncnc2cc1OCC1CN(CCCC#N)CCO1 (stereo unspecified) |
| 50 to 1000 | 50 to 1000 | 50 to 1000 | COc1cc2c(Nc3ccc(Cl)c(Cl)c3)ncnc2cc1OCc1csc(CN2CCCC2)n1 |
| 50 to 1000 | 50 to 1000 | 50 to 1000 | COc1cc2c(Nc3ccc(Cl)c(Cl)c3)ncnc2cc1OCc1nc(CS(=O)(=O)c2ccccn2)no1 |
| 50 to 1000 | 50 to 1000 | 50 to 1000 | COc1cc2c(Nc3ccc(Cl)cc3Cl)ncnc2cc1OCC1CN(C)CCO1 (stereo unspecified) |
| 50 to 1000 | 50 to 1000 | 50 to 1000 | COc1cc2c(Nc3ccc(Cl)c(Cl)c3)ncnc2cc1OCC1CN(Cc2ccc(F)cc2)CCO1 (stereo unspecified) |
| 50 to 1000 | 50 to 1000 | 50 to 1000 | COc1cc2c(Nc3cccc(Br)c3C)ncnc2cc1OCC1CN(C)CCO1 (stereo unspecified) |
| 50 to 1000 | 50 to 1000 | 50 to 1000 | COc1cc2c(Nc3ccc(Br)cc3Br)ncnc2cc1OCC1CN(C)CCO1 (stereo unspecified) |
| 1000 to 20000 | 50 to 1000 | 50 to 1000 | COc1cc2c(Nc3ccc(Cl)c(Cl)c3)ncnc2cc1OCC1CN(CCc2ccccc2)CCO1 (stereo unspecified) |
| 50 to 1000 | 50 to 1000 | < 50 | COc1cc2c(Nc3ccc(Cl)c(Cl)c3)ncnc2cc1OCC1CN(Cc2ccccn2)CCO1 (stereo unspecified) |
| 50 to 1000 | 50 to 1000 | 50 to 1000 | CCC#CCN1CCOC(COc2cc3ncnc(Nc4ccc(Cl)c(Cl)c4)c3cc2OC)C1 (stereo unspecified) |
| 50 to 1000 | 50 to 1000 | 50 to 1000 | CCC(CC)CN1CCOC(COc2cc3ncnc(Nc4ccc(Cl)c(Cl)c4)c3cc2OC)C1 (stereo unspecified) |
| – | < 50 | < 50 | COc1cc2c(Nc3ccc(Cl)c(Cl)c3)ncnc2cc1OCC1CN(CC2CCCCO2)CCO1 (stereo unspecified) |
| 50 to 1000 | < 50 | 50 to 1000 | COc1cc2c(Nc3ccc(Cl)c(Cl)c3)ncnc2cc1OCC1CN(C2CCOCC2)CCO1 (stereo unspecified) |
| 50 to 1000 | 50 to 1000 | 50 to 1000 | CCCCCN1CCOC(COc2cc3ncnc(Nc4ccc(Cl)c(Cl)c4)c3cc2OC)C1 (stereo unspecified) |
| 50 to 1000 | 50 to 1000 | < 50 | COc1cc2c(Nc3ccc(Cl)c(Cl)c3)ncnc2cc1OCC1CN(C2CCC2)CCO1 (stereo unspecified) |
| < 50 | < 50 | < 50 | C#CCN1CCOC(COc2cc3ncnc(Nc4ccc(Cl)c(Cl)c4)c3cc2OC)C1 (stereo unspecified) |
| 50 to 1000 | 50 to 1000 | 50 to 1000 | CCCCCCN1CCOC(COc2cc3ncnc(Nc4ccc(Cl)c(Cl)c4)c3cc2OC)C1 (stereo unspecified) |
| 50 to 1000 | 50 to 1000 | 50 to 1000 | CC#CCN1CCOC(COc2cc3ncnc(Nc4ccc(Cl)c(Cl)c4)c3cc2OC)C1 (stereo unspecified) |
| < 50 | < 50 | < 50 | COc1cc2c(Nc3ccc(Cl)c(Cl)c3)ncnc2cc1OCC1CN(c2ccncc2)CCO1 (stereo unspecified) |
| 50 to 1000 | < 50 | 50 to 1000 | CCCN1CCOC(COc2cc3ncnc(Nc4ccc(Cl)c(Cl)c4)c3cc2OC)C1 (stereo unspecified) |

| IC50 (Ephrin type-A receptor 2) [nM] | IC50 (Ephrin type-B receptor 4) [nM] | IC50 [1] [nM] | SMILES |
| --- | --- | --- | --- |
| 50 to 1000 | 50 to 1000 | 1000 to 20000 | COc1cc(Nc2ncnc3cc(OCC4CN(C)CCO4)c(OC)cc23)c(OC)cc1Cl (stereo unspecified) |
| 50 to 1000 | < 50 | < 50 | C=CCCCN1CCOC(COc2cc3ncnc(Nc4ccc(Cl)c(Cl)c4)c3cc2OC)C1 (stereo unspecified) |
| 50 to 1000 | 50 to 1000 | 50 to 1000 | C=CCN1CCOC(COc2cc3ncnc(Nc4ccc(Cl)c(Cl)c4)c3cc2OC)C1 (stereo unspecified) |
| 50 to 1000 | 50 to 1000 | 50 to 1000 | COc1cc2c(Nc3cc(Cl)ccc3F)ncnc2cc1OCC1CN(C)CCO1 (stereo unspecified) |
| 50 to 1000 | < 50 | < 50 | COc1cc2c(Nc3ccc(Cl)c(Cl)c3)ncnc2cc1OCC1CN(CCCCCCO)CCO1 (stereo unspecified) |
| 50 to 1000 | 50 to 1000 | 50 to 1000 | COc1cc2c(Nc3ccc(Cl)c(Cl)c3)ncnc2cc1OCC1CN(CCC2CCCCC2)CCO1 (stereo unspecified) |
| 50 to 1000 | 50 to 1000 | < 50 | COc1cc2c(Nc3ccc(Cl)cc3F)ncnc2cc1OCC1CN(C)CCO1 (stereo unspecified) |
| 1000 to 20000 | 1000 to 20000 | 1000 to 20000 | COc1cc2c(Nc3ccc(Cl)c(Cl)c3)ncnc2cc1OCc1cc(F)cc2c1OCOC2 |
| 50 to 1000 | 50 to 1000 | 50 to 1000 | COc1cc2c(Nc3ccc(Cl)c(Cl)c3)ncnc2cc1OCc1noc(C2CCCN2C)n1 (stereo unspecified) |
| – | < 50 | < 50 | COCCOc1cc2c(Nc3ccc(Cl)c(Cl)c3)ncnc2cc1OCC1CNCCO1 (stereo unspecified) |
| 50 to 1000 | 50 to 1000 | 50 to 1000 | CCC(=O)CN1CCOC(COc2cc3ncnc(Nc4ccc(Cl)c(Cl)c4)c3cc2OC)C1 (stereo unspecified) |
| 50 to 1000 | 50 to 1000 | < 50 | COc1cc2c(Nc3ccc(Br)cc3F)ncnc2cc1OCC1CN(C)CCO1 (stereo unspecified) |
| 50 to 1000 | 50 to 1000 | 1000 to 20000 | CCN1CCN(C)CC1COc1cc2ncnc(Nc3ccc(Cl)c(Cl)c3)c2cc1OC (stereo unspecified) |
| – | 50 to 1000 | – | COc1cc2c(Nc3ccc(Cl)c(Cl)c3)ncnc2cc1OCc1csc(CN(C)C)n1 |
| – | < 50 | – | COc1cc2c(Nc3ccc(Cl)c(Cl)c3)ncnc2cc1OCc1csc(CN2CCN(C)CC2)n1 |
| – | 50 to 1000 | – | COc1cc2c(Nc3ccc(Cl)c(Cl)c3)ncnc2cc1OCc1csc(CN2CCOCC2)n1 |
| – | < 50 | – | COc1cc2c(Nc3ccc(Cl)c(Cl)c3)ncnc2cc1OCC1CCCCO1 (stereo unspecified) |
| 1000 to 20000 | 50 to 1000 | 50 to 1000 | CCCCCCCN1CCOC(COc2cc3ncnc(Nc4ccc(Cl)c(Cl)c4)c3cc2OC)C1 (stereo unspecified) |
| 50 to 1000 | 50 to 1000 | 50 to 1000 | COC(=O)CCCCN1CCOC(COc2cc3ncnc(Nc4ccc(Cl)c(Cl)c4)c3cc2OC)C1 (stereo unspecified) |
| 1000 to 20000 | 50 to 1000 | 1000 to 20000 | CCCCCCCCN1CCOC(COc2cc3ncnc(Nc4ccc(Cl)c(Cl)c4)c3cc2OC)C1 (stereo unspecified) |
| 50 to 1000 | < 50 | 50 to 1000 | COc1cc2c(Nc3ccc(Cl)c(Cl)c3)ncnc2cc1OCC1CN(CCC2OCCO2)CCO1 (stereo unspecified) |
| 50 to 1000 | 50 to 1000 | 50 to 1000 | C=CCCCCCCN1CCOC(COc2cc3ncnc(Nc4ccc(Cl)c(Cl)c4)c3cc2OC)C1 (stereo unspecified) |
| 50 to 1000 | < 50 | < 50 | COc1cc2c(Nc3ccc(Cl)c(Cl)c3)ncnc2cc1OCC1CN(CCCCF)CCO1 (stereo unspecified) |
| 50 to 1000 | < 50 | 50 to 1000 | COc1cc2c(Nc3ccc(Cl)c(Cl)c3)ncnc2cc1OCC1CN(C(C)=O)CCO1 (stereo unspecified) |
| 1000 to 20000 | – | – | COc1ccc(-c2nc(COc3cc4ncnc(Nc5ccc(Cl)c(Cl)c5)c4cc3OC)no2)cc1 |
| 50 to 1000 | 50 to 1000 | 50 to 1000 | CC[C@@H](C)CN1CCOC(COc2cc3ncnc(Nc4ccc(Cl)c(Cl)c4)c3cc2OC)C1 (stereo partly specified) |
| 50 to 1000 | < 50 | – | COc1cc2c(Nc3ccc(Cl)c(Cl)c3)ncnc2cc1OC[C@@H]1O[C@@H](OC)[C@@H](O)[C@H](O)[C@H]1O (single isomer, unassigned) |
